Results as given in patent publication US20210330731A1, “TOPICAL SALVE FORMULATIONS FOR DERMAL ALKALOID DELIVERY” (priority 2020, published 2021).

Assay: Topical application of alkaloid-containing analgesic salve formulations, observed pain relief
Format: in vivo, patients
Settings: for notable effect of secondary ingredient added to formulation: secondary ingredient in topical formulation
From the text: In most embodiments, three-cup batches of oil and wax (e.g.; 2¼ cup oil, ¾ cup wax or other hardening agent) were infused with an extract produced from at least two ounces of plant matter processed using the above method. In a preferred embodiment, an extract produced from around 4.5 to 6 ounces of herbal material yielded the best results as far as optimal pain relief for the amount of product used.
In one embodiment, a formulation for a kratom alkaloid-based topical product involves extracting alkaloids from kratom powder into a food-grade oil (such as coconut oil) at 160° F. The powder may be combined with a lecithin (such as a sunflower lecithin) to aid in extraction.
In a further embodiment, a formulation involves extracting alkaloids from kratom powder into a food-grade oil at 160° F. for two hours and adding one or more carrier oils. The carrier oils comprise black pepper oil, turmeric oil, peppermint oil and lemon oil. A hardening agent, such as beeswax, may also be added. Piperine (a black pepper alkaloid), curcumin (a metabolite of turmeric), peppermint oil, and lemon oil are intended as dermal carriers and absorption enhancers. Piperine is known to increase curcumin bioavailability.
In a further embodiment, a severe pain relief formulation involves extracting alkaloids from kratom powder into a food-grade oil at 160° F. for two hours and adding one or more carrier oils. The carrier oils comprise black pepper oil, turmeric oil, peppermint oil (alternately, eucalyptus or naioli oils will suffice since they contain similar compounds), lemon oil, magnesium oil, St John's Wort oil, arnica oil, parsley oil, cinnamon oil, lemongrass oil, ginger oil, arnica oil (comprises helenalin, fatty acids (inolenic, palmitic, linoleic, and myristic) thymol, ethers of thymol, thymohydroquinone dimethyl ether, and phlorol isobutyrate (2%)), Ylang Ylang (Cananga odorata) oil (comprises linalool, caryophyllene and germacrene), and/or Black Seed oil (comprises anethole, p-cymene, limonene, carvone and thymoquinone). […] FIG. 2 provides a table 200 listing primary herbal extract sources 210 and secondary ingredients 220, including but not limited to dermal absorption enhancers 222, alkaloid potentiators 224, neuropathic relief agents 226, and anti-inflammation agents 228.
In yet another embodiment, a severe pain and inflammation relief formulation involves extracting alkaloids from kratom powder into a food-grade oil at 160° F. for two hours and adding one or more carrier oils. The carrier oils comprise black pepper oil, turmeric oil, peppermint oil, lemon oil, magnesium oil, St. John's Wort oil, arnica oil, and ginger oil. The kratom powder may be a combination of concentrated kratom extract and kratom powder. […]

## O=c1c(O)c(-c2ccc(O)c(O)c2)oc2cc(O)cc(O)c12 [quercetin]
  notable effect of secondary ingredient added to formulation: decreased pain and inflammation

## Oc1ccc(/C=C/c2cc(O)cc(O)c2)cc1 [Trans-resveratrol]
Added to the formulation as alkaloid potentiator
  increase of the effect of a formulation (duration): approximately two hours or longer

## copper salicylate
  notable effect of secondary ingredient added to formulation: minor improvement to pain relief

## magnesium stearate
  notable effect of secondary ingredient added to formulation: relieved muscle spasms
